Test results published in patent US20110092591A1, “PHENYL-PRENYL DERIVATIVES, OF MARINE AND SYNTHETIC ORIGIN, FOR THE TREATMENT OF COGNITIVE, NEURODEGENERATIVE OR NEURONAL DISEASES OR DISORDERS” (NOSCIRA S.A., priority 2008, published 2011).

Legend:
Type in all cases: biochemical
[1] = target: T1, rhBACE-1 β-Secretase recombinant human (Homo sapiens, UniProt P56817); experiment: BACE assay (FRET, fluorogenic peptide substrate); settings: for % BACE Activity: percentage of the enzyme activity (remaining)
T1 construct: purchased R&D Systems 931-AS
T1 sequence (P56817 46-457 limits assumed): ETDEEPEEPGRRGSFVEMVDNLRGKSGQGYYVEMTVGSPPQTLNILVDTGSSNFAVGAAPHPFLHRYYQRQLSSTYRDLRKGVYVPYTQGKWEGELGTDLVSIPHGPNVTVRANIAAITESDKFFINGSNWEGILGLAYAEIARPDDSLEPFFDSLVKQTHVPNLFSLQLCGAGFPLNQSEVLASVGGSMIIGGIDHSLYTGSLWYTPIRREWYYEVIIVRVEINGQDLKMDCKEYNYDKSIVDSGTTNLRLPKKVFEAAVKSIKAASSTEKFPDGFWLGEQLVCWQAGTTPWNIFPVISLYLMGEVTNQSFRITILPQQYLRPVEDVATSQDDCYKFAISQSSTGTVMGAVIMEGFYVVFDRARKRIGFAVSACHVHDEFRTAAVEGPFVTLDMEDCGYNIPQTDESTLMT
Excerpt: The aim of this assay is to determine if a compound, either synthetic or of marine origin, is a BACE-1 inhibitor, to avoid the formation of Aβ. This assay is based on FRET technology (Fluorescence Resonance Energy Transfer). FRET is used to measure cleavage of a peptide substrate, among other uses. […] When a substrate peptide cleavage occurs, the energy balance is broken and all the donor fluorescence can be observed. The increase in fluorescence is linearly related to the rate of proteolysis (Gordon, G W et al., 1998). In this assay the reaction occurs between an enzyme, purified BACE-1, and a fluorogenic peptidic substrate who present the “Swedish mutation”. The peptide cleavage by BACE-1 produces fluorescence energy and enzymatic activity can be quantified.
The reagents which are used in this assay are the following:
rhBACE-1 β-Secretase recombinant human (R&D Systems. Ref. 931-AS).
Fluorogenic Peptide Substrate IV (R&D Systems. Ref. ES004).
Beta-SECRETASE INHIBITOR H-4848. (BACHEM. Ref. H-4848.0001).
The assay is carried out in a 96 wells microplate. The final concentration of substrate is 3.5 μM per well, and the enzyme concentration is 0.5 μg/ml. The final volume of the assay is 100 μl per well and all reagents are diluted in Reaction Buffer.
The compounds are tested at a concentration of 10^−5 and 10^−6 M. The control in the assay is the commercial inhibitor β-Secretase inhibitor H-4848 from BACHEM, which is tested at 300 nM. All the samples and controls are studied by duplicate.
The plate is mixed gently and changes in the fluorescence are measured using a fluorimeter plate reader, with 320 nm excitation filter and 405 nm emission filter. The temperature should be preferably maintained between 25 and 30° C. Measurements are carried out every ten minutes during an hour. The first measure is subtracted from the last to calculate the fluorescence increase, evaluating the enzymatic activity. The 100% activity is calculated as the mean of the results of wells without sample or inhibitor.
In the cases where abnormal effects in fluorescence were detected, BACE inhibition activity was assayed using BACE-1 (beta-Secretase) FRET ASSAY KIT (Invitrogen, Ref. P2985). Fluorescence was measured with a fluorimeter plate reader, with 544 nm excitation filter and 580 nm emission filter.
Further information regarding this assay may be found in the following references, which are incorporated by reference into the present application: • Andrau, D et al; “BACE1- and BACE2-expressing human cells: characterization of beta-Amyloid precursor protein-derived catabolites, design of a novel fluorimetric assay, and identification of new in vitro inhibitors”. J Biol Chem. 2003 Jul. 11; 278(28):25859-66. • Gordon, G W et al; “Quantitative fluorescence resonance energy transfer measurements using fluorescence microscopy.” Biophys J. 1998 May; 74:2702-13.
The compounds of formula (I) of the present invention where submitted to the above indicated assay, in order to determine their BACE activity inhibition. The results are indicated in Table I, in percentage of the enzyme activity.

[2] = target: T2, Recombinant human glycogen synthase kinase 3 beta (Homo sapiens, UniProt P49841); experiment: GSK-3 beta inhibition assay (33P-ATP, GS-2 peptide); settings: 0.5 h, percentage of the enzyme activity (remaining), read-out: % Act. GSK-3 beta; for remaining activity at 25 µM: compound at 25 μM; for remaining activity at 50 µM: compound at 50 μM
T2 sequence (P49841 whole entry): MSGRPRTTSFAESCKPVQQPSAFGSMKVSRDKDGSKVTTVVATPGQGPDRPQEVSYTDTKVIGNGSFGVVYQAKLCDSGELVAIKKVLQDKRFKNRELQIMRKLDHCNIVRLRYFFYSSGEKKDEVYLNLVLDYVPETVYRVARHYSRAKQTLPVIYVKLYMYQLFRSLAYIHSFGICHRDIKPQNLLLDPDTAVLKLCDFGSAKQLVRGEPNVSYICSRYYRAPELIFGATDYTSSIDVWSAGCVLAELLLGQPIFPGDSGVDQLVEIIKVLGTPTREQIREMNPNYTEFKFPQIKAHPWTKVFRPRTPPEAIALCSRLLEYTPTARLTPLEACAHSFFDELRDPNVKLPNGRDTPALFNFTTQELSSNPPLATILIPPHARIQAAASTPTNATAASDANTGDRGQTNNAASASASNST
Method: The GSK-3 beta activity of the compounds of formula (I) according to the present invention was determined by incubation of a mixture of recombinant human GSK-3 enzyme, a phosphate source and GSK-3 substrate in the presence and in the absence of the corresponding test compound, and by measuring the GSK-3 activity of this mixture. The compounds where tested at final concentrations of 25 and 50 μM.
Recombinant human glycogen synthase kinase 3 beta was assayed in MOPS 11 mM, pH 7.4, EDTA 0.2 mM, EGTA 1.25 mM, MgCl2 26.25 mM and sodium orthovanadate 0.25 mM in the presence of 62.5 μM of Phospho-Glycogen Synthase Peptide-2 (GS-2), 0.5 μCi gamma-^33P-ATP and unlabelled ATP at a final concentration of 12.5 μM. The final assay volume was 20 μl. After incubation for 30 minutes at 30° C., 15 μl aliquots were spotted onto P81 phosphocellulose papers. Filters were washed four times for at least 10 minutes each and counted with 1.5 ml of scintillation cocktail in a scintillation counter.
The compounds of formula (I) of the present invention where submitted to the above indicated assay, in order to determine their GSK-3 inhibition activity. The results are indicated in Table II, in percentage of the enzyme activity.

[3] = target: T2, Recombinant human glycogen synthase kinase 3 beta; experiment: as above

Row | Compound | % BACE Activity ([1]; compound at 1 μM) [%] | % BACE Activity ([1]; compound at 10 μM) [%] | remaining activity at 25 µM [2] [%] | remaining activity at 50 µM [2] [%] | IC50 [3] [µM] | IC50 [1] [µM]
1 | CC(C)=CCC/C(C)=C/CC/C(C)=C/Cc1cc(C(=O)O)ccc1O [Compound 15] | 100 | 5 ± 9 | 24.6 | 3.27 | 11 | 
2 | CC(C)=CCC/C(C)=C/CC/C(C)=C/CC/C(C)=C/Cc1cc(C(=O)OCc2ccccc2)ccc1OCc1ccccc1 [Compound 17] | 100 | 100 | 71.9 | 52.1 |  | 
3 | CCNC(=O)c1ccc(O)c(C/C=C(\C)CC/C=C(\C)CC/C=C(\C)CCC=C(C)C)c1 [Compound 18] | 100 | 100 | 32.8 | 13.3 |  | 
4 | CC(=O)Oc1ccc(C(=O)O)cc1C/C=C(\C)CC/C=C(\C)CC/C=C(\C)CCC=C(C)C [Compound 19] | 87 ± 14.5 | 17.5 ± 0.7 | 10.7 | 4.58 | 2.77 | 20.5 ± 2.8
5 | COCOC(=O)c1ccc(OC(C)=O)c(C/C=C(\C)CC/C=C(\C)CC/C=C(\C)CCC=C(C)C)c1 [Compound 20, (2E,6E,10E)-4-Acetoxy-3-(3,7,11,15-tetramethyl-hexadeca-2,6,10,14-tetraenyl)-benzoic acid methoxymethyl ester] | 100 | 100 | 51 | 17.7 |  | 
6 | COCOc1ccc(C(=O)O)cc1C/C=C(\C)CCC=C(C)C [Compound 21] | 88 ± 9 | 27 ± 3 | 100 | 79.9 |  | 
7 | CC(C)=CCC/C(C)=C/CC/C(C)=C/Cc1cc(C=O)ccc1OCc1ccccc1 [Compound 23] | 99 ± 2 | 88 ± 13 | 2.22 | 2.01 |  | 
8 | CC(C)=CCC/C(C)=C/CC/C(C)=C/CC/C(C)=C/Cc1cc(C(=O)OCc2ccccc2)ccc1O [Compound 24] | 100 | 100 | 49.7 | 22.8 |  | 
9 | COCOC(=O)c1ccc(O)c(C/C=C(\C)CC/C=C(\C)CC/C=C(\C)CCC=C(C)C)c1 [Compound 25] | 100 | 100 | 9.18 | 4.5 | 22 | 
10 | CC(C)=CCC/C(C)=C/CC/C(C)=C/Cc1cc(C(=O)O)ccc1OCc1ccccc1 [Compound 26] | 100 | 100 | 71.4 | 41 |  | 
11 | CC(C)=CCC/C(C)=C/Cc1cc(C(=O)O)ccc1OCc1ccccc1 [Compound 27] | 34 ± 27 | 0 ± 0 | 85.1 | 65.8 |  | 
12 | COCOc1ccc(C(=O)O)cc1C/C=C(\C)CC/C=C(\C)CCC=C(C)C [Compound 28] | 87 ± 10 | 33 ± 7 | 17.1 | 2.44 | 18 | 
